Values quoted from earlier work as cited in PMC13575890, “Investigating substituted phenylacetamide ligands in the D4R extended binding pocket” (Bioorganic & medicinal chemistry letters, 2026).

Tests used:
human D3R = target: T1, human D3R (Homo sapiens, UniProt P35462); set-up: method as in PMID 30883109; settings: membranes from HEK 293 cells stably expressing hD3R; previously reported compounds; read-out: Ki (nM) ± SEM [3H]N-methylspiperone D3R
T1 construct: expressed in transfected cells

human D4R = target: T2, human D4R (Homo sapiens, UniProt P21917); set-up: method as in PMID 30883109; settings: membranes from HEK 293 cells stably expressing hD4R; previously reported compounds; read-out: Ki (nM) ± SEM [3H]N-methylspiperone D4R
T2 construct: expressed in transfected cells
T2 sequence (P21917 1-419): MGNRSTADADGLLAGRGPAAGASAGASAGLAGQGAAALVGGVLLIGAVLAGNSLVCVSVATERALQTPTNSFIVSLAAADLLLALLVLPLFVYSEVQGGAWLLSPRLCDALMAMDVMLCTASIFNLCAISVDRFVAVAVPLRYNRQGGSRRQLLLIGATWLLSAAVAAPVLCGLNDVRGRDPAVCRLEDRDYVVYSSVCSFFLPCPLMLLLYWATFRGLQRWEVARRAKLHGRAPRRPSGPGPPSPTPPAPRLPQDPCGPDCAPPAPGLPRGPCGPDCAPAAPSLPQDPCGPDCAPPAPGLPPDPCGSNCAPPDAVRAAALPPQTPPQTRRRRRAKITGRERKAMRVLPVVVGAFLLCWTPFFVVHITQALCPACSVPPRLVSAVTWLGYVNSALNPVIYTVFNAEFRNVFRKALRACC

T1 sequence (P35462 whole entry): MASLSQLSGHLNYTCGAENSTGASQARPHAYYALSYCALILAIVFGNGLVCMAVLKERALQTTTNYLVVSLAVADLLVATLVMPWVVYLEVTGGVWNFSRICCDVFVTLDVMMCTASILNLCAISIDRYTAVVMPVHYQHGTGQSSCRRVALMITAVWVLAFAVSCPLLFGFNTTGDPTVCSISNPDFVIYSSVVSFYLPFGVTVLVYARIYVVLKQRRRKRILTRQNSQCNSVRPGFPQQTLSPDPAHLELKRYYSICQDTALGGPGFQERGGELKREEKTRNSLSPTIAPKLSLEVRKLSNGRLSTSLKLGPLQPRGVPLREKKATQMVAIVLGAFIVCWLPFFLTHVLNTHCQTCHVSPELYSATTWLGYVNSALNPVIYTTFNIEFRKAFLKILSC

Ki (human D3R) [nM] | Ki (human D4R) [nM] | SMILES
> 50000 | 75.1 ± 0.7 | Cc1cccc(NC(=O)CN2CCN(c3ccccn3)CC2)c1 [Compound 2]
 | 66.6 ± 1.8 | CCc1cccc(NC(=O)CN2CCN(c3ccccn3)CC2)c1 [Compound 3]
